These results are taken from publication PMC8588536, “Iridal-Type Triterpenoids Displaying Human Neutrophil Elastase Inhibition and Anti-Inflammatory Effects from Belamcanda chinensis” (Molecules, 2021).

For orientation: Ki means the equilibrium dissociation constant of an inhibitor or competing ligand from its target. What is called IC50 is the concentration needed to halve the response being measured. Low readings indicate greater potency in that assay, high ones weaker potency in that assay.

The target in series [1] is T1, Human neutrophil elastase (HNE, EC 3.4.21.37) (Homo sapiens, UniProt P08246).
T1 construct: purchased Sigma-Aldrich
T1 sequence (P08246 30-267): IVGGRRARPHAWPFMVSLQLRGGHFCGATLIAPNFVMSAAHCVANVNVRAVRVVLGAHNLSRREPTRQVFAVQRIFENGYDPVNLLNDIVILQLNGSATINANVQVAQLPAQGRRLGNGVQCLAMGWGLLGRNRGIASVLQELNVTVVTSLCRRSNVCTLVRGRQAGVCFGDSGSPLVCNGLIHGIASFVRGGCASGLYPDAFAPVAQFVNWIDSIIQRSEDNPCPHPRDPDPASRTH
Nature of the series: Human neutrophil elastase inhibition, spectrophotometric, MeOSuc-AAPV-pNA substrate. It counts as biochemical. Conditions: for Ki: Dixon plots, read-out: Ki (inhibition constant); for Type of Inhibition: Lineweaver-Burk and Dixon plots, reversibility from activity vs enzyme concentration plots; for IC50: concentration that caused 50% enzyme activity loss, three sets of experiments. As to the method: Human neutrophil elastase (EC 3. 4. 21. 37) (Sigma-Aldrich, St. Louis, MO, USA) activity was measured in accordance with the previous description with subtle modification, by observing the formation of p-nitroaniline after the hydrolysis of N-methoxysuccinyl-Ala-Ala-Pro-Val-p-nitro anilide at 405 nm. The inhibitors were dissolved in dimethyl sulfoxide (DMSO) and diluted to a few concentrations. In brief, in a 96-well plate, 10 µL of inhibitor solution and 40 µL of 1.5 mM of MeOSuc-AAPV-pNA were added as a substrate in the 0.02 mM Tris-HCl buffer solutions (pH 8.0). Then, 20 µL of human neutrophil elastase (0.2 unit/mL) was added to the mixture. The test mixtures were incubated and mixed for 15 min at room temperature and then screened at 405 nm for 30 min every 30 s.
Activity (%) = 100 [1/(1 + ([I]/IC50))].(1)
The modalities of HNE inhibition were estimated in experiments using particular concentrations of the substrates and inhibitors, respectively. The Michaelis–Menten constant (Km) and maximal velocity (Vmax) were investigated by a Lineweaver–Burk plot. The KI, dissociation constants for inhibitor binding to the free enzyme were calculated using a Dixon plot. Equations (2)–(4) are representatives for deriving the aforementioned parameters. (2) 1/V=Km/Vmax(1+[I]/Ki)×1/S+1/Vmax (3) Slop=Km/KiVmax[I]+Km/Vmax (4) Intercept=1/KiVmax[I]+1/Vmax.

Series [2] relates to IL-1β mRNA in LPS-stimulated RAW264.7 cells. The experiment in a line: IL-1β mRNA expression by RT-PCR. It counts as cell-based, mouse. As to conditions: 1 or 3 µg/mL, n = 6, p < 0.05. As for the experimental part:
(§1) Total RNA was isolated from cultured RAW264.7 cells using TRIzol reagent (Ambion®, Carlsbad, CA, USA) according to the manufacturer’s instructions. First strand cDNA was synthesized from the total RNA (3 μg) using oligo dT (DiaStar RT Kit, SolGent, Daejeon, Korea) and was used as a template for PCR amplification with G-Taq polymerase (Cosmogenetech, Seoul, Korea). The first-strand cDNA was quantified using a spectrophotometer (NanoDrop® ND-1000, NanoDrop Technologies, Wilmington, […], USA). The quantified cDNA was used as a template. PCR assay was performed with specific primers for inducible nitric oxide (iNOS), IL-1β, and TNF-α. The PCR steps included initial denaturation at 94 °C for 5 min, then 28 cycles at 94 °C for 30 s, 57 °C for 30 s, and 72 °C for 30 s, and a final extension step at 72 °C for 10 min. The amplified PCR products were separated in 1.5% agarose gel, and the gel was stained with ethidium bromide. The bands were visualized using the iBright^TM CL1500 imaging system (Thermo Scientific Fisher/Life Technologies Holdings Pte Ltd., Singapore). The DNA fragments were directly sequenced with the ABI PRISM® 3100-Avant Genetic Analyzer (Applied Biosystems, Carlsbad, CA, USA).

The next series relates to RAW264.7 cells. The experiment in a line: MTT cell viability assay. It counts as cell-based, mouse. Conditions: 10 µg/mL, 24 h. As for the experimental part:
The mouse macrophage cell line RAW264.7 was obtained from the American Type Culture Collection (ATCC, Manassas, VA, USA). The cells were cultured in DMEM supplemented with 10% fetal bovine serum (FBS), penicillin (100 U/mL), and streptomycin (100 μg/mL) at 37 °C with 5% CO2. The medium was replaced every 2 days. After treatment with chemicals, the cell morphological changes were observed under a microscope and images are captured before cell viability assay.
Cell viability was determined calorimetrically using a 3-(4,5-dimethylthiazole-2-yl)-2,5-diphenyl tetrazolium bromide (MTT) reagent (5 mg/mL in phosphate buffered saline (PBS), Duchefa Biochemie, Haarlem, The Netherlands). The MTT assay procedures were performed as described previously. Briefly, a 24-well plate (5 × 10^4 cells/well) was seeded with RAW264.7, a mouse macrophage cell line. After 24 h of chemical treatment, each well was filled with 20 µL of 5 mg/mL MTT solution (0.1 mg/mL) and incubated for 4 h. After aspirating the supernatants, the formazan crystals in each well were dissolved in 200 µL of dimethyl sulfoxide (DMSO) for 30 min at 37 °C, and the 24-well plates were read at 570 nm with a microplate reader (Bio-Rad, Hercules, CA, USA). Data are expressed as a percentage of viable cells compared with the control.
(Tetrazolium assays rely on reduction of a dye to a coloured formazan, in cell work by metabolically active cells.)

Series [3] concerns NO production in LPS-stimulated RAW264.7 cells. The experiment in a line: Nitrite levels (NO production), Griess method. It counts as cell-based, mouse. Conditions: 1 or 3 µg/mL 2 h prior to LPS 1 µg/mL for 16 h; p < 0.05. As to the method: Nitrite levels were determined using the Griess method, as described previously (Jeong et al., 2016). Briefly, RAW264.7 cells (5 × 10^4 cells/well) were cultured in a 24-well plate. The cells were pretreated with triterpenoids (1 or 3 µg/mL) 2 h prior to lipopolysaccharides (LPS, 1 µg/mL) treatment for 16 h. Supernatants were collected and centrifuged at 2451× g for 10 min. The (50 μL) of supernatants were mixed with equal volumes of Griess reagent (1% sulfanilamide, 0.1% n-l-naphthylethy-lenediamine dihydrochloride, and 2% phosphoric acid), and incubated for 10 min. The optical density was measured at 550 nm, and the nitrite levels were calculated from a standard curve generated from sodium nitrite.
In general terms: The Griess reaction detects nitrite, a stable product of nitric oxide.

Series [4] deals with iNOS mRNA in LPS-stimulated RAW264.7 cells. The experiment in a line: iNOS mRNA expression by RT-PCR. It counts as cell-based, mouse. Conditions: 1 or 3 µg/mL, LPS 1 µg/mL; n = 5, p < 0.05. As for the experimental part:
as §1

“Also recorded” adds a separate entry of the source.

On to `CC(C)=CCCC(C)=CCC(O)C(C)=CCCC1(C)C(CCCO)C(=C(C)C=O)CCC1(C)O` (centres unmarked) [Compound 2, iridobelamal A], for which, in series [1], the Ki is 24.9 µM, the “Type of Inhibition” value is on record as “noncompetitive inhibition” and the IC50 stood at 27 ± 0.6 µM. The “LPS-upregulated IL-1β mRNA level” value in series [2] is “noticeably decreased”. Besides, the “reduction of cell viability” value in the series with RAW264.7 cells was 23.4 ± 5.1%. Besides, in series [3], the “LPS-induced NO production” value is “significantly reduced; also recorded: dose-dependent inhibition”. The “LPS-induced iNOS mRNA upregulation” value in series [4] is reported as “significantly reduced”.

As for `CC(C)=CCC/C(C)=C/C[C@@H](O)/C(C)=C/CC[C@@]1(C)[C@H](CCCO)/C(=C(/C)C=O)CC[C@]1(C)O` [Compound 1, isoiridogermanal], in series [1], the Ki came out at 12.7 µM, the “Type of Inhibition” value was “noncompetitive inhibition” and 14.4 ± 0.3 µM corresponded to half-maximal inhibition (IC50). Also, the “LPS-upregulated IL-1β mRNA level” value in series [2] is “noticeably decreased”. Also, the “reduction of cell viability” value in the series on RAW264.7 cells worked out at 28.8 ± 4.4%. In series [3], the “LPS-induced NO production” value is “significantly reduced”. The “LPS-induced iNOS mRNA upregulation” value in series [4] was “significantly reduced”.
